# Experimental data as given in article PMC4810081, “Venetoclax (ABT-199) Might Act as a Perpetrator in Pharmacokinetic Drug–Drug Interactions” (Pharmaceutics, 2016).
# Columns and labels:
# P-gp = P-gp inhibition, calcein assay in P388/dx cells; format: in vitro ADME; details: mouse, P388/dx cells over-expressing murine mdr1a/b, probe calcein
# Experimental: P388 and P388/dx cells. For testing P-gp inhibition, the murine monocytic leukemia cell line P388/dx over-expressing murine mdr1a/b and the corresponding parental cell line P388 were used. Both cell lines were kindly provided by D. Ballinari (Pharmacia & Upjohn, Milano, Italy). The cells were cultured under standard cell culture conditions with an RPMI 1640 medium supplemented with 10% FCS, 2 mM of glutamine, […] of β-mercaptoethanol, 100 U/mL of penicillin, and 100 µg/mL of streptomycin sulfate. For maintaining P-gp expression, the culture medium for P388/dx was supplemented with 0.43 µM of doxorubicin. One day before the assay, both cell lines were fed with a doxorubicin-free culture medium.
# P-gp inhibition was assessed with the calcein assay in P388/dx cells as described previously. Inhibition of P-gp increases intracellular calcein fluorescence in these cells. Each venetoclax concentration (0.005–50 µM) was tested in octuplet, and the experiment was performed in quadruplicate.
# CYP2C19 = target: T1, CYP2C19 (Homo sapiens, UniProt P33261); test: CYP2C19 inhibition, CYP2C19/CEC High Throughput Inhibitor Screening Kit; format: in vitro ADME; details: recombinant CYP, fluorogenic substrate
# T1 construct: purchased Becton Dickinson Biosciences (Heidelberg, Germany)
# T1 sequence (P33261 whole entry): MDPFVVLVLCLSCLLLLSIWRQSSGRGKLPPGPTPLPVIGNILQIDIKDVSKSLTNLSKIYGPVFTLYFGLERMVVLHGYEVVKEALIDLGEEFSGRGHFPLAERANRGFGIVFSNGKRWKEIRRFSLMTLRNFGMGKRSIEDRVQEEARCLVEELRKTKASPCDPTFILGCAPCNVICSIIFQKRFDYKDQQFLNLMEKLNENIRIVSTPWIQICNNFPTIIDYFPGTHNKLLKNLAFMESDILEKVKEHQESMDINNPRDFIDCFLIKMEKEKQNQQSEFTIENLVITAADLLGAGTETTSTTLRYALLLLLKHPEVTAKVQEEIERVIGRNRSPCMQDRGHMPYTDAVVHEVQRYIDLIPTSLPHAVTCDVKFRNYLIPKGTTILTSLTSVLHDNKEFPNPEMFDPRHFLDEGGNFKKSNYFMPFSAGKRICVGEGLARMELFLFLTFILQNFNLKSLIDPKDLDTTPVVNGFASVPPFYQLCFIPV
# Experimental: Inhibition studies for CYP2B6, CYP2D6, CYP2C19 and CYP3A4 were performed with the CYP2B6/EFC, CYP2D6/AMMC, the CYP2C19/CEC, and the CYP3A4/BFC High Throughput Inhibitor Screening Kit according to the manufacturer’s instructions. The kits contain the respective recombinant CYP and fluorogenic substrates, which are blocked dyes emitting a fluorescence signal when cleaved by the enzyme. For testing CYP1A2 inhibition, the P450-Glo CYP1A2 Screening System was used according to the manufacturer’s instructions. The kit contains the luminogenic CYP1A2 substrate luciferin-ME, which is converted by CYP1A2 into luciferin-generating light when incubated with the luciferin detection reagent of the kit. Eight concentrations of venetoclax in duplicates (0.009–20 µM) were tested in the fluorescence assays, and eight concentrations in triplicate (0.05–100 µM) were tested for the luminogenic assay. Each experiment was conducted in triplicate.
# BCRP = target: T2, BCRP (Homo sapiens, UniProt Q9UNQ0); test: BCRP inhibition, flow cytometric pheophorbide A assay in MDCKII-BCRP cells; format: in vitro ADME
# T2 construct: expressed in transfected cells; host or cells: MDCKII-BCRP (gift of A. H. Schinkel and P. Borst)
# T2 sequence (Q9UNQ0 whole entry): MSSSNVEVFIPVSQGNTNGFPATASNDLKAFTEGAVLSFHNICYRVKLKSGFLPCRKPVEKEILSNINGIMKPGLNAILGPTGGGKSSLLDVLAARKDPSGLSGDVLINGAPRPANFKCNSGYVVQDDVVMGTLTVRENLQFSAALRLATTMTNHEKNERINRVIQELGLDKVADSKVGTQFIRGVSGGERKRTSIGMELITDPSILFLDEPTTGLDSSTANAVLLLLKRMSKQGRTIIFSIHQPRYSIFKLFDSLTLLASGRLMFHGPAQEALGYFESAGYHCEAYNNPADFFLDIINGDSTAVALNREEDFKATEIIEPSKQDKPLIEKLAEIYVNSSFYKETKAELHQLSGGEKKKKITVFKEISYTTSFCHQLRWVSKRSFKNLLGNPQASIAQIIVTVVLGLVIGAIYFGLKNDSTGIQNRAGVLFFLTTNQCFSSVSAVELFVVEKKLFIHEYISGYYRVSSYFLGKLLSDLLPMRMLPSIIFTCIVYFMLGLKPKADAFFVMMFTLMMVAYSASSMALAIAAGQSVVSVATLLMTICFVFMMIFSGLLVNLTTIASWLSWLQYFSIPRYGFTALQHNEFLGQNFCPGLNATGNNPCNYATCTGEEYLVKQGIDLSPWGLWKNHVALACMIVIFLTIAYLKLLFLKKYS
# Description: (§1) MDCKII cells. The transporter over-expressing cell lines MDCKII-MDR1 [5], MDCKII-MRP2 [6], and MDCKII-BCRP [7] and the corresponding parental cell line MDCKII were used to assess the sensitivity of cells with and without P-gp, multidrug resistance-associated protein 2 (MRP2/ABCC2), or BCRP expression. Moreover, MDCKII-BCRP cells were used to assess BCRP inhibition by venetoclax. MDCKII over-expressing cell lines were kindly provided by A. H. Schinkel and P. Borst (Amsterdam, The Netherlands). The parental cell line MDCKII (available at ATCC, Manassas, VA, USA) was used as a control. The cells were cultured in Dulbecco’s Modified Eagle’s Medium (DMEM) containing 10% FCS, 2 mM of glutamine, 100 U/mL of penicillin, and 100 µg/mL of streptomycin sulfate.
# Flow cytometric BCRP inhibition assays were conducted in control (MDCKII) and BCRP over-expressing cells (MDCKII-BCRP) using PhA as a fluorescent BCRP substrate as described and validated previously. Inhibition of BCRP leads to an increase in intracellular PhA concentrations. Each experiment was performed in triplicate. Venetoclax was tested from 0.1 up to 100 µM.
# MDCKII = test: Growth inhibition assay in MDCKII cells; format: cell-based; details: Canis lupus familiaris, MDCK-II; MDCKII parental cells
# Description: as §1
# Growth inhibition assays in LS180 cells were conducted to determine suitable maximum concentrations for the induction assay without profound antiproliferative effects. Proliferation was quantified by crystal violet staining of the surviving cells as described previously. Each experiment was performed at least in triplicate with n = 8 wells for each concentration (0.1–100 µM). The IC20 for proliferation inhibition by venetoclax was 8.4 ± 1.0 µM; thus, the maximum concentration for the induction assay was set to 10 µM, ensuring that about 80% of the cells will survive. […]
# [1] = Growth inhibition assay in MDCKII-BCRP cells; format: cell-based; details: dog, MDCKII-BCRP cells (BCRP over-expressing)
# Experimental: MDCKII cells. […] Moreover, MDCKII-BCRP cells were used to assess BCRP inhibition by venetoclax. MDCKII over-expressing cell lines were kindly provided by A. H. Schinkel and P. Borst (Amsterdam, The Netherlands). The parental cell line MDCKII (available at ATCC, Manassas, VA, USA) was used as a control. The cells were cultured in Dulbecco’s Modified Eagle’s Medium (DMEM) containing 10% FCS, 2 mM of glutamine, 100 U/mL of penicillin, and 100 µg/mL of streptomycin sulfate. Growth inhibition assays in LS180 cells were conducted to determine suitable maximum concentrations for the induction assay without profound antiproliferative effects. Proliferation was quantified by crystal violet staining of the surviving cells as described previously. […] Growth inhibition assays in MDCKII, and their MRP2 or BCRP over-expressing counterparts ([…], MDCKII-BCRP) and in LLC-PK1 and the corresponding P-gp over-expressing cell line L-MDR1 were conducted to evaluate whether venetoclax sustains its efficacy in MDR cell lines.
structure (smiles),measurement,setting,value
CC1(C)CCC(CN2CCN(c3ccc(C(=O)NS(=O)(=O)c4ccc(NCC5CCOCC5)c([N+](=O)[O-])c4)c(Oc4cnc5[nH]ccc5c4)c3)CC2)=C(c2ccc(Cl)cc2)C1 [Venetoclax],IC50,P-gp,30 ± 3.7 µM
same,IC50,CYP2C19,14.2 ± 1 µM
same,IC50,BCRP,19.6 ± 7.3 µM
same,IC50,MDCKII,15.2 ± 2.4 µM
same,IC50,[1],15.7 ± 0.4 µM
